The record followed here is US20260159481A1, “INDOLE DERIVATIVE WITH SUBSTITUENT AND PHARMACEUTICAL USE” (MITOIMMUNE THERAPEUTICS INC., priority 2023, published 2026).

The test system of data set [1] is cardiac cells (H9C2). Description: Protective effect against t-BHP-induced cell death in cardiac cells (LDH release). In kind it is cell-based. The note with it: Rattus norvegicus, t-BHP 400 PM, 2 hours, read-out: EC50, protective effect against cell death due to t-BHP induction. In short, it runs like this:
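H9C2 cells were pretreated 15–20 min with compound at final 0.001–30 PM (so in the source), then exposed to t-BHP at final 400 PM for 2 h. LDH released into supernatant was measured colorimetrically at 490 nm after 15 min room-temperature reaction, and EC50 derived.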
Background: Release of lactate dehydrogenase indicates damage to the cell membrane.

Data set [2] deals with cardiac cells (H9C2). Description: Protective effect against cell death due to RSL3 (LDH release), H9C2. Format: cell-based. The note with it: Rattus norvegicus, RSL3 0.5 μM, 24 hours. Here is the method: (§1) To confirm cell death protection effects on cardiac cells, adrenal medullary cells, renal fibroblasts, retinal epithelial cells, lung epithelial cells, renal proximal tubular epithelial cells, hippocampal neurons and fibroblasts, each type of cells were seeded at 4×10^3 to 1.2×10^4 cells/well in a 96-well plate and cultured for 18 to 24 hours. The example compounds were diluted to have the final concentration of 0.001, 0.003, 0.01, 0.3, 1, 3, and 10 μM, respectively, and then added to different wells and cultured for 15 to 20 minutes. […] To confirm the cell death protection effect of the example compounds, the degree of extracellular secretion of lactate dehydrogenase (LDH) was measured using a cytotoxicity LDH assay kit [Dojindo; CK12]. Briefly, at the end of 24-hour treatment of each type of cells with RSL3, 70 μL of the supernatant was taken from the 96-well plate where the cells were cultured and transferred to a new 96-well plate. The assay buffer included in the kit was added at 70 μL/well (equal to that of the sample) and the plate was covered with foil to block light and allowed to react for 15 to 20 minutes at room temperature. While observing a color change of the sample, 35 µL/well of a stop solution was added, an absorbance at 490 nm was measured using an iD3 spectrophotometer, and an EC50 value was calculated.

The test system of data set [3] is renal fibroblasts (NRK-49F). Description: Protective effect against cell death due to RSL3 (LDH release), NRK-49F. Format: cell-based. Conditions: Rattus norvegicus, RSL3 3 μM, 24 hours. Here is the method:
as §1

Data set [4] deals with lung epithelial cells (MLE-12). Kind of data set: Protective effect against cell death due to RSL3 (LDH release), MLE-12. Format: cell-based. The note with it: MLE12, RSL3 1 μM, 24 hours. Here is the method: as §1
Data set [5] relates to retinal epithelial cells (ARPE-19). Description: Protective effect against cell death due to RSL3 (LDH release), ARPE-19. In kind it is cell-based. Conditions: Homo sapiens, RSL3 0.3 μM, 24 hours. How it is done: as §1
In data set [6] the test system is adrenal medullary cells (PC-12). Description: Protective effect against cell death due to RSL3 (LDH release), PC-12. Format: cell-based. The note with it: Rattus norvegicus, RSL3 0.3 μM, 24 hours. How it is done: as §1
Data set [7] concerns renal proximal tubular epithelial cells (HK2). Description: Protective effect against cell death due to RSL3 (LDH release), HK2. In kind it is cell-based. The note with it: Epithelial cell, RSL3 0.3 μM, 24 hours. How it is done: as §1
Data set [8] has as its system hippocampal neurons (HT-22). Kind of data set: Protective effect against cell death due to RSL3 (LDH release), HT-22. In kind it is cell-based. The note with it: Mus musculus, RSL3 0.3 μM, 24 hours. Here is the method:
as §1

The test system of the next data set is fibroblasts (NIH/3T3). Description: Protective effect against cell death due to RSL3 (LDH release), NIH/3T3. In kind it is cell-based. The note with it: Mus musculus, NIH3T3, RSL3 3 μM, 24 hours. Here is the method:
as §1

Data set [9] can be described thus: Pharmacokinetics in plasma after oral administration to ICR mice. Format: in vivo. The note with it: oral 10 mg/kg. How it is done:
Pharmacokinetic parameters may include the maximum plasma concentration (Cmax), the time to reach the maximum plasma concentration (Tmax), the area under the plasma concentration-time curve (AUCinf), and a half-life (t1/2).
Example Compound 27 was orally administered to ICR mice at a dose of 10 mg/kg. Drug concentrations in the plasma of mice were measured by HPLC-MS/MS spectroscopy 0.5, 1, 2, 4, 8, or 24 hours after administration.
The comparative example compound was orally administered to ICR mice at a dose of 10 mg/kg. The drug concentrations in the plasma of the mice were measured by HPLC-MS/MS 0.5, 1, 2, 4, 8, or 24 hours after administration.

As a reminder, the EC50 is the concentration giving half of the maximal effect. With `CCNS(=O)(=O)c1cc(NC2CCCC2)c2[nH]c(-c3ccccc3)cc2c1` [Example 22, 7-(cyclopentylamino)-N-ethyl-2-phenyl-1H-indole-5-sulfonamide], the concentration for a half-maximal effect (EC50) was 300 to 1000 nM in the data set on cardiac cells (H9C2) [1]; at most 100 nM in the data set on cardiac cells (H9C2) [2]; at most 100 nM in data set [3]; 100 to 1000 nM in [4]; at most 100 nM in data set [5]; 100 to 1000 nM in data set [6]. The EC50 in data set [7] is at most 100 nM; in [8] it was 100 to 1000 nM; in the data set with fibroblasts (NIH/3T3), 100 to 1000 nM.

Turning to `c1ccc(-c2cc3cc(COCCN4CCOCC4)cc(NC4CCCC4)c3[nH]2)cc1` [Example 41, N-cyclopentyl-5-((2-morpholinoethoxy)methyl)-2-phenyl-1H-indol-7-amine], the EC50 is at most 300 nM in the data set with cardiac cells (H9C2) [1]; at most 100 nM in the data set with cardiac cells (H9C2) [2]; at most 100 nM in [3]; at most 100 nM in data set [4]; at most 100 nM in data set [5]; at most 100 nM in data set [6]. Further, the concentration for a half-maximal effect (EC50) in [7] was at most 100 nM; in data set [8], at most 100 nM; with fibroblasts (NIH/3T3) it was 100 to 1000 nM.

As for `CC1(O)CCC(OCc2cc(NC3CCOCC3)c3[nH]c(-c4ccccc4)cc3c2)CC1` (centres unmarked) [Example 36, 1-methyl-4-((2-phenyl-7-((tetrahydro-2H-pyran-4-yl)amino)-1H-indol-5-yl)methoxy)cyclohexan-1-ol], the EC50 in the data set on cardiac cells (H9C2) [1] was at most 300 nM; with cardiac cells (H9C2) [2], at most 100 nM; in [3], at most 100 nM; in data set [4], 100 to 1000 nM; in data set [5], at most 100 nM; in data set [6], 100 to 1000 nM. The EC50 in [7] was at most 100 nM; in data set [8] it was 100 to 1000 nM; in the data set with fibroblasts (NIH/3T3), 100 to 1000 nM.

With `O=C(NC1CC1)c1cc(NCc2ccncc2)c2[nH]c(-c3ccccc3)cc2c1` [Example 8, N-cyclopropyl-2-phenyl-7-((pyridin-4-ylmethyl)amino)-1H-indole-5-carboxamide], the half-maximal effective concentration (EC50) in the data set on cardiac cells (H9C2) [1] was at most 300 nM; with cardiac cells (H9C2) [2] it was 100 to 1000 nM; in data set [3], 100 to 1000 nM; in data set [4], 100 to 1000 nM; in data set [5] it was at most 100 nM; in [6], 100 to 1000 nM. Besides, the EC50 in data set [7] is 100 to 1000 nM; in data set [8], above 1000 nM; with fibroblasts (NIH/3T3), 100 to 1000 nM.

For the molecule `FC(F)COCc1cc(NC2CCOCC2)c2[nH]c(-c3ccccc3)cc2c1` [Example 40, 5-((2,2-difluoroethoxy)methyl)-2-phenyl-N-(tetrahydro-2H-pyran-4-yl)-1H-indol-7-amine], the EC50 is at most 300 nM in the data set on cardiac cells (H9C2) [1]; at most 100 nM in the data set on cardiac cells (H9C2) [2]; at most 100 nM in data set [3]; at most 100 nM in data set [4]; at most 100 nM in [5]; at most 100 nM in data set [6]. In addition, the EC50 in [7] was at most 100 nM; in [8], at most 100 nM; in the data set on fibroblasts (NIH/3T3), 100 to 1000 nM.

For `CCN(CC)C(=O)Cc1cc(NCc2ccccc2)c2[nH]c(-c3ccccc3)cc2c1` [Example 14, 2-(7-(benzylamino)-2-phenyl-1H-indol-5-yl)-N,N-diethylacetamide], the half-maximal effective concentration (EC50) is 300 to 1000 nM in the data set on cardiac cells (H9C2) [1]; at most 100 nM with cardiac cells (H9C2) [2]; at most 100 nM in [3]; at most 100 nM in data set [4]; at most 100 nM in data set [5]; at most 100 nM in data set [6]. The half-maximal effective concentration (EC50) in data set [7] was at most 100 nM; in data set [8], 100 to 1000 nM; with fibroblasts (NIH/3T3) it was 100 to 1000 nM.

In general, Cmax refers to the peak of the concentration-time curve. As usually defined, the Tmax is the time at which the peak concentration occurs. As usually defined, the half-life is how long it takes for the measured level to halve. Lower therefore signals rapid decline. Regarding `OCCOCc1cc(NC2CCOCC2)c2[nH]c(-c3ccccc3)cc2c1` [Example 27, 2-((2-phenyl-7-((tetrahydro-2H-pyran-4-yl)amino)-1H-indol-5-yl)methoxy)ethan-1-ol], the 50% effective concentration (EC50) was at most 300 nM in the data set on cardiac cells (H9C2) [1]; at most 100 nM with cardiac cells (H9C2) [2]; at most 100 nM in data set [3]; 100 to 1000 nM in data set [4]; at most 100 nM in data set [5]; at most 100 nM in data set [6]. Moreover, the EC50 (in data set [7]; in [8]; in the data set on fibroblasts (NIH/3T3)) was at most 100 nM in each case. In [9] (mouse, plasma), the Cmax worked out at 4440 ng/mL. Moreover, the Tmax in data set [9] (mouse, plasma) was 1 h. Besides, in data set [9] (mouse, plasma), the half-life was 2.83 h. Moreover, in [9] (mouse, plasma, read-out: area under the plasma concentration-time curve (AUCinf)), the AUC(0-inf) was found to be 25100 ng·h/mL. In [9] (mouse, plasma, 0.5 hr), this molecule registered a concentration at 0.5 h of 3830 ng/mL. Besides, the concentration at 1 h in data set [9] (mouse, plasma, 1 hr) came out at 4440 ng/mL. The concentration at 2 h in data set [9] (mouse, plasma, 2 hr) was found to be 3780 ng/mL. For the same molecule, the concentration at 4 h in [9] (mouse, plasma, 4 hr) stood at 2800 ng/mL. Besides, the concentration at 8 h in [9] (mouse, plasma, 8 hr) turned out to be 1080 ng/mL. For the same molecule, in [9] (mouse, plasma, 24 hr), the concentration at 24 h was determined as 1 ng/mL. For the same molecule, the “exposure (AUCinf) relative to the comparative example compound” value in data set [9] is on record as “approximately 5 times”. In addition, the “half-life relative to the comparative example compound” value in [9] is on record as “approximately 2 times”. Further, the “maximum plasma concentration (Cmax) relative to the comparative example compound” value in data set [9] is recorded as “approximately 2 times”. In [9] (plasma), the AUCinf was 25,115 ng · hr/mL.
